Source: patent publication US20190127381A1, “SUBSTITUTED FUSED PYRIMIDINONE COMPOUNDS” (TORRENT PHARMACEUTICALS LIMITED, priority 2016, published 2019)

Legend:
[1] = target: T1, purified recombinant human PI3K enzyme δ (Homo sapiens, UniProt O00329); assay: Inhibition of PI3-Kinase enzymatic activity (HTRF enzyme assay), δ; type: biochemical; conditions: 1 μM compound; PI3K δ 50 ng/well; PIP2 10 μM; ATP 200 μM; read-out: Percentage inhibition of PI3K activity, δ
T1 construct: purchased Invitrogen, USA
Experimental: (§1) Inhibition of PI3-Kinase enzymatic activity was determined using a homogeneous time-resolved fluorescence (HTRF) kit from Eurofins. 1 μM of Compounds of present invention were premixed with DMSO. The experiment was initiated by mixing 1.0% DMSO as vehicle/compounds with purified recombinant human PI3K enzyme {δ (50 ng/well); γ (100 ng/well)} (Invitrogen, USA) and substrate (PIP2, 10 μM) in the wells and incubation for 15 min at room temperature. There after ATP was added (δ at 200 μM, and γ at 50 μM) in to the wells containing reaction mixture, followed by re-incubation for 30 minutes at room temperature. Reaction was terminated by addition of a stopping solution and was further incubated for 4 hours at room temperature before reading using Envision multimode reader (Perkin Elmer). Percentage inhibition of PI3K activity was calculated by determining ratio of specific europium 665 nm energy transfer signal to reference 615 nm signals.

[2] = target: T2, purified recombinant human PI3K enzyme γ (Homo sapiens, UniProt P48736); assay: Inhibition of PI3-Kinase enzymatic activity (HTRF enzyme assay), γ; type: biochemical; conditions: 1 μM compound; PI3K γ 100 ng/well; PIP2 10 μM; ATP 50 μM; read-out: Percentage inhibition of PI3K activity, γ
T2 construct: purchased Invitrogen, USA
Experimental: as §1

T1 sequence (O00329 whole entry): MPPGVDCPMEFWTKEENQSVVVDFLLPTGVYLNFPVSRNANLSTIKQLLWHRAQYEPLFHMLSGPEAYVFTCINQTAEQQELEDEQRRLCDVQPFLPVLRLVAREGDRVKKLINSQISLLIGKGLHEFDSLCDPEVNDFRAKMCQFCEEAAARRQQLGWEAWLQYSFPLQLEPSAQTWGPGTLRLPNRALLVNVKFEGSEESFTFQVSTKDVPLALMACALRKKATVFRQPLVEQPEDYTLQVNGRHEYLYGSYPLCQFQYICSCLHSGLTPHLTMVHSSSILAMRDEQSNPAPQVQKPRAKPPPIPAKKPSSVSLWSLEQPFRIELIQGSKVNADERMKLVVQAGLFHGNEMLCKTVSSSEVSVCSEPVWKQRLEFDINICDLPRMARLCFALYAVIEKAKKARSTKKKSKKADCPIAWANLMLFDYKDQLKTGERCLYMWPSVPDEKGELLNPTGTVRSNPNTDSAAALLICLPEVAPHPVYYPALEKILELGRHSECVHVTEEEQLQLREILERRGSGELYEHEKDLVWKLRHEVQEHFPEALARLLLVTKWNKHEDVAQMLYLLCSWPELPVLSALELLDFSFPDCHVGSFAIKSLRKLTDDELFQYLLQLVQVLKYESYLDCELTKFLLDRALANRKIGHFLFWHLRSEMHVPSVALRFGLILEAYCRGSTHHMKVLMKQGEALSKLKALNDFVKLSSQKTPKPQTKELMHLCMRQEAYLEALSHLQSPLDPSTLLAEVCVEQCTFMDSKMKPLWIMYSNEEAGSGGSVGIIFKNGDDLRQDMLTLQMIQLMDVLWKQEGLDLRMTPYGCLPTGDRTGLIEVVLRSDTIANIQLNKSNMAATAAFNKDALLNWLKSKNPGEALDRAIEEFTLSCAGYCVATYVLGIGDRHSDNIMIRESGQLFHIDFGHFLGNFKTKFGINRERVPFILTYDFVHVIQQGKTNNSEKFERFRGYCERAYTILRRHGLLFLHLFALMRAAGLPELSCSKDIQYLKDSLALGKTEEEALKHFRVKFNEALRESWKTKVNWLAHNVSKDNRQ
T1 sequence (P27986 whole entry partner): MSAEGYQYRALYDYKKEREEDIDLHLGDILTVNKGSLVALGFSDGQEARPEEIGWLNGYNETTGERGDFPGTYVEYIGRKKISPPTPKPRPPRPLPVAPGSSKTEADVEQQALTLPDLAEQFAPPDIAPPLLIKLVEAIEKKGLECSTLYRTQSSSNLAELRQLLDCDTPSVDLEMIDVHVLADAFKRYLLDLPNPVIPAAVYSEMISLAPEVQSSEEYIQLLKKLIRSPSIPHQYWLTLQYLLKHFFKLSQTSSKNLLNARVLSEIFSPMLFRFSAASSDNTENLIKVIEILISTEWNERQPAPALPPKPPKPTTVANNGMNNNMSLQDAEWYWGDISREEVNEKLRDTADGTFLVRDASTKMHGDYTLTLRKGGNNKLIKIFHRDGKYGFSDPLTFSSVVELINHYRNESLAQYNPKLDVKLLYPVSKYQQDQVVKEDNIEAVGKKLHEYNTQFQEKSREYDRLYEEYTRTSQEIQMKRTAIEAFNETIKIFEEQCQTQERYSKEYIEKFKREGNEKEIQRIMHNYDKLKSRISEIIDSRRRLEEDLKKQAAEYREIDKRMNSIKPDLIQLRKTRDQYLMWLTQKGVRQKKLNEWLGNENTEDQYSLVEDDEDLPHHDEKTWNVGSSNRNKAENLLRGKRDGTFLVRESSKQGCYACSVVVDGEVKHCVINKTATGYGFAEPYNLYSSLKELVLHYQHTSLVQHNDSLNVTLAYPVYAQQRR
T2 sequence (P48736 whole entry): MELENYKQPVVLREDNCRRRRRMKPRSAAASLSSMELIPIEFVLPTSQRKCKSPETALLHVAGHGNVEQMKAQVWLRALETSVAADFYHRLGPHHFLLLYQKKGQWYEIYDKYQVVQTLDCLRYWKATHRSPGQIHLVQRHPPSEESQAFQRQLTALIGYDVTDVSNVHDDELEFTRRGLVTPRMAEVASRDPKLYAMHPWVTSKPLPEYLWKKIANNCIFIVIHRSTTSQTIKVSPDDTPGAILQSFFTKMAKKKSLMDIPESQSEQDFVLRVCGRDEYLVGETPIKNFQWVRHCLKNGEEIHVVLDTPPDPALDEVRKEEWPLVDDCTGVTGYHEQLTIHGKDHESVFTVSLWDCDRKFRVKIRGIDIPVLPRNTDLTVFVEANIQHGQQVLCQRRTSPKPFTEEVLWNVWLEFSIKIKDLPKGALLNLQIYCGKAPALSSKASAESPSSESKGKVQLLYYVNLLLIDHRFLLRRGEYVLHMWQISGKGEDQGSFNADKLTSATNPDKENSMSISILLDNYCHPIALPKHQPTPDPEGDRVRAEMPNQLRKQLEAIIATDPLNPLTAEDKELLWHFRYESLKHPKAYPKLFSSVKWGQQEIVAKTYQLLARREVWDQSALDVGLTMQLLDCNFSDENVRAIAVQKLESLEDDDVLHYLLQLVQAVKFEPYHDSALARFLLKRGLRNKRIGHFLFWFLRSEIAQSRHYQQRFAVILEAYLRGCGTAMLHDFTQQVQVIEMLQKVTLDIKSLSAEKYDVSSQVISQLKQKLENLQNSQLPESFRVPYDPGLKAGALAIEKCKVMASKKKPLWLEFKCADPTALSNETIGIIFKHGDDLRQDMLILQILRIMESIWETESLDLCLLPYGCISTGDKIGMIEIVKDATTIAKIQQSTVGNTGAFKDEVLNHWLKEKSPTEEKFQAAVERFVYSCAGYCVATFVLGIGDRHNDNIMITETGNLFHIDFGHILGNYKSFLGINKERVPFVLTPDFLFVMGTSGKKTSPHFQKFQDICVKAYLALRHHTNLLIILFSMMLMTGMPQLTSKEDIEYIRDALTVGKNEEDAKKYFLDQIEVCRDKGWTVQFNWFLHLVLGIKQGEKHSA

| inhibition at 1 µM [1] | inhibition at 1 µM [2] | SMILES |
| --- | --- | --- |
| 80 to 100% | 60 to 80% | Cn1nccc1-c1cccc2nc(Cn3nc(-c4ccc(O)c5c4CC(C)(C)O5)c4c(N)ncnc43)n(C3(c4ccccc4)CC3)c(=O)c12 [compound 30, 2-{[4-amino-3-(7-hydroxy-2,2-dimethyl-2,3-dihydro-1-benzofuran-4-yl)-1H-pyrazolo[3,4-d]pyrimidin-1-yl]methyl}-5-(1-methyl-1H-pyrazol-5-yl)-3-(1-phenylcyclopropyl)quinazolin-4(3H)-one] |
| 80 to 100% | 60 to 80% | Cc1cccc(C2(n3c(Cn4nc(-c5ccc(O)c6c5CC(C)(C)O6)c5c(N)ncnc54)nc4cccc(C#CCO)c4c3=O)CC2)c1 [compound 31, 2-{[4-amino-3-(7-hydroxy-2,2-dimethyl-2,3-dihydro-1-benzofuran-4-yl)-1H-pyrazolo[3,4-d]pyrimidin-1-yl]methyl}-5-(3-hydroxyprop-1-yn-1-yl)-3-[1-(3-methylphenyl)cyclopropyl]quinazolin-4(3H)-one] |
| 80 to 100% | 60 to 80% | Cc1cccc(C2(n3c(Cn4nc(-c5ccc(O)c6c5CC(C)(C)O6)c5c(N)ncnc54)nc4cccc(-c5ccnn5C)c4c3=O)CC2)c1 [compound 33, 2-{[4-amino-3-(7-hydroxy-2,2-dimethyl-2,3-dihydro-1-benzofuran-4-yl)-1H-pyrazolo[3,4-d]pyrimidin-1-yl]methyl}-3-[1-(3-methylphenyl)cyclopropyl]-5-(1-methyl-1H-pyrazol-5-yl)quinazolin-4(3H)-one] |
| 80 to 100% | 60 to 80% | CC1(C)Cc2c(-c3nn(Cc4nc5cccc(C#CCN6CCOCC6)c5c(=O)n4-n4cccc4)c4ncnc(N)c34)ccc(O)c2O1 [compound 35, 2-{[4-amino-3-(7-hydroxy-2,2-dimethyl-2,3-dihydro-1-benzofuran-4-yl)-1H-pyrazolo[3,4-d]pyrimidin-1-yl]methyl}-5-[3-(morpholin-4-yl)prop-1-yn-1-yl]-3-(1H-pyrrol-1-yl)quinazolin-4(3H)-one] |
| 80 to 100% | 80 to 100% | Cc1ccc(C2(n3c(Cn4nc(-c5ccc(O)c6c5CC(C)(C)O6)c5c(N)ncnc54)nc4cccc(C#CCO)c4c3=O)CC2)cc1 [compound 37, 2-{[4-amino-3-(7-hydroxy-2,2-dimethyl-2,3-dihydro-1-benzofuran-4-yl)-1H-pyrazolo[3,4-d]pyrimidin-1-yl]methyl}-5-(3-hydroxyprop-1-yn-1-yl)-3-[1-(4-methylphenyl)cyclopropyl]quinazolin-4(3H)-one] |
| 80 to 100% | 60 to 80% | Cc1ccc(C2(n3c(Cn4nc(-c5ccc(O)c6c5CC(C)(C)O6)c5c(N)ncnc54)nc4cccc(-c5ccnn5C)c4c3=O)CC2)cc1 [compound 40, 2-{[4-amino-3-(7-hydroxy-2,2-dimethyl-2,3-dihydro-1-benzofuran-4-yl)-1H-pyrazolo[3,4-d]pyrimidin-1-yl]methyl}-3-[1-(4-methylphenyl)cyclopropyl]-5-(1-methyl-1H-pyrazol-5-yl)quinazolin-4(3H)-one] |
| 80 to 100% | 80 to 100% | Cc1ccc(C)n1-n1c(Cn2nc(-c3ccc(O)c4c3CC(C)(C)O4)c3c(N)ncnc32)nc2cccc(-c3ccnn3C)c2c1=O [compound 41, 2-{[4-amino-3-(7-hydroxy-2,2-dimethyl-2,3-dihydro-1-benzofuran-4-yl)-1H-pyrazolo[3,4-d]pyrimidin-1-yl]methyl}-3-(2,5-dimethyl-1H-pyrrol-1-yl)-5-(1-methyl-1H-pyrazol-5-yl)quinazolin-4(3H)-one] |
| 80 to 100% | 80 to 100% | Cc1ccc(C)n1-n1c(Cn2nc(-c3ccc(O)c4c3CC(C)(C)O4)c3c(N)ncnc32)nc2cccc(C#CCO)c2c1=O [compound 42, 2-{[4-amino-3-(7-hydroxy-2,2-dimethyl-2,3-dihydro-1-benzofuran-4-yl)-1H-pyrazolo[3,4-d]pyrimidin-1-yl]methyl}-3-(2,5-dimethyl-1H-pyrrol-1-yl)-5-(3-hydroxyprop-1-yn-1-yl)quinazolin-4(3H)-one] |
| 80 to 100% | 80 to 100% | Cc1ccc(C)n1-n1c(Cn2nc(-c3ccc(O)c4c3CC(C)(C)O4)c3c(N)ncnc32)nc2cccc(C#CC3CC3)c2c1=O [compound 43, 2-{[4-amino-3-(7-hydroxy-2,2-dimethyl-2,3-dihydro-1-benzofuran-4-yl)-1H-pyrazolo[3,4-d]pyrimidin-1-yl]methyl}-5-(cyclopropylethynyl)-3-(2,5-dimethyl-1H-pyrrol-1-yl)quinazolin-4(3H)-one] |
| 80 to 100% | 60 to 80% | CCn1cc(-c2cccc3nc(Cn4nc(-c5ccc(O)c6c5CC(C)(C)O6)c5c(N)ncnc54)n(-n4cccc4)c(=O)c23)cn1 [compound 45, 2-{[4-amino-3-(7-hydroxy-2,2-dimethyl-2,3-dihydro-1-benzofuran-4-yl)-1H-pyrazolo[3,4-d]pyrimidin-1-yl]methyl}-5-(1-ethyl-1H-pyrazol-4-yl)-3-(1H-pyrrol-1-yl)quinazolin-4(3H)-one] |
| 80 to 100% | 80 to 100% | CC1(C)Cc2c(-c3nn(Cc4nc5cccc(C#CC6CC6)c5c(=O)n4-n4cccc4)c4ncnc(N)c34)ccc(O)c2O1 [compound 48, 2-{[4-amino-3-(7-hydroxy-2,2-dimethyl-2,3-dihydro-1-benzofuran-4-yl)-1H-pyrazolo[3,4-d]pyrimidin-1-yl]methyl}-5-(cyclopropylethynyl)-3-(1H-pyrrol-1-yl)quinazolin-4(3H)-one] |
| 80 to 100% | 60 to 80% | Cc1ccccc1C1(n2c(Cn3nc(-c4ccc(O)c5c4CC(C)(C)O5)c4c(N)ncnc43)nc3cccc(Cl)c3c2=O)CC1 [compound 55, 2-{[4-amino-3-(7-hydroxy-2,2-dimethyl-2,3-dihydro-1-benzofuran-4-yl)-1H-pyrazolo[3,4-d]pyrimidin-1-yl]methyl}-5-chloro-3-[1-(2-methylphenyl)cyclopropyl]quinazolin-4(3H)-one] |
| 80 to 100% | 60 to 80% | Cc1ccccc1C1(n2c(Cn3nc(-c4ccc(O)c5c4CC(C)(C)O5)c4c(N)ncnc43)nc3cccc(C)c3c2=O)CC1 [compound 56, 2-{[4-amino-3-(7-hydroxy-2,2-dimethyl-2,3-dihydro-1-benzofuran-4-yl)-1H-pyrazolo[3,4-d]pyrimidin-1-yl]methyl}-5-methyl-3-[1-(2-methylphenyl)cyclopropyl]quinazolin-4(3H)-one] |
| 80 to 100% | 60 to 80% | Cc1ccc(C)n1-n1c(Cn2nc(-c3ccc(O)c4c3CC(C)(C)O4)c3c(N)ncnc32)nc2cccc(C#CCN3CCN(C)CC3)c2c1=O [compound 57, 2-{[4-amino-3-(7-hydroxy-2,2-dimethyl-2,3-dihydro-1-benzofuran-4-yl)-1H-pyrazolo[3,4-d]pyrimidin-1-yl]methyl}-3-(2,5-dimethyl-1H-pyrrol-1-yl)-5-[3-(4-methylpiperazin-1-yl)prop-1-yn-1-yl]quinazolin-4(3H)-one] |
| 80 to 100% | 80 to 100% | CC1(C)Cc2c(-c3nn(Cc4nc5cccc(C#CCN6CCNC(=O)C6)c5c(=O)n4-n4cccc4)c4ncnc(N)c34)ccc(O)c2O1 [compound 58, 2-{[4-amino-3-(7-hydroxy-2,2-dimethyl-2,3-dihydro-1-benzofuran-4-yl)-1H-pyrazolo[3,4-d]pyrimidin-1-yl]methyl}-5-[3-(3-oxopiperazin-1-yl)prop-1-yn-1-yl]-3-(1H-pyrrol-1-yl)quinazolin-4(3H)-one] |
| 80 to 100% | 60 to 80% | Cc1ccccc1C1(n2c(Cn3nc(-c4ccc(O)c5c4CC(C)(C)O5)c4c(N)ncnc43)nc3cccc(-c4ccnn4C)c3c2=O)CC1 [compound 59, 2-{[4-amino-3-(7-hydroxy-2,2-dimethyl-2,3-dihydro-1-benzofuran-4-yl)-1H-pyrazolo[3,4-d]pyrimidin-1-yl]methyl}-3-[1-(2-methylphenyl)cyclopropyl]-5-(1-methyl-1H-pyrazol-5-yl)quinazolin-4(3H)-one] |
| 80 to 100% | 60 to 80% | Cc1cccc2nc(Cn3nc(-c4ccc(O)c5c4CC(C)(C)O5)c4c(N)ncnc43)n(C3(c4cccs4)CC3)c(=O)c12 [compound 60, 2-{[4-amino-3-(7-hydroxy-2,2-dimethyl-2,3-dihydro-1-benzofuran-4-yl)-1H-pyrazolo[3,4-d]pyrimidin-1-yl]methyl}-5-methyl-3-[1-(thiophen-2-yl)cyclopropyl]quinazolin-4(3H)-one] |
| 80 to 100% | 60 to 80% | Cc1ccc(C)n1-n1c(Cn2nc(-c3ccc(O)c4c3CC(C)(C)O4)c3c(N)ncnc32)nc2cccc(-c3cnn(C)c3)c2c1=O [compound 62, 2-{[4-amino-3-(7-hydroxy-2,2-dimethyl-2,3-dihydro-1-benzofuran-4-yl)-1H-pyrazolo[3,4-d]pyrimidin-1-yl]methyl}-3-(2,5-dimethyl-1H-pyrrol-1-yl)-5-(1-methyl-1H-pyrazol-4-yl)quinazolin-4(3H)-one] |
| 80 to 100% | < 20% | Cc1ccc(C)n1-n1c(Cn2nc(-c3ccc(O)c4c3CC(C)(C)O4)c3c(N)ncnc32)nc2cccc(C#Cc3cncn3C)c2c1=O [compound 67, 2-{[4-amino-3-(7-hydroxy-2,2-dimethyl-2,3-dihydro-1-benzofuran-4-yl)-1H-pyrazolo[3,4-d]pyrimidin-1-yl]methyl}-3-(2,5-dimethyl-1H-pyrrol-1-yl)-5-[(1-methyl-1H-imidazol-5-yl)ethynyl]quinazolin-4(3H)-one] |
